Experimental data as given in patent US20040166058A1, “Ethylenedicysteine (EC)-drug conjugates, compositions and methods for tissue specific disease imaging” (Board of Regents, The University of Texas System, priority 2002, published 2004).

Key:
[1] = system: RBA CRL-1747 mammary tumor; assay: Biodistribution in mammary (breast) tumor-bearing rats; format: in vivo; conditions: iv
Description: (§1) Biodistribution was assessed in mammary tumor-bearing rats (RBA CRL-1747, n=3/time interval, iv). Studies were performed 14 to 17 days after implantation when tumors reached approximately 1 cm in diameter. Following administration of the radiotracer, rats were sacrificed at 0.5-4 hrs. The selected tissues were excised, weighed and counted for radioactivity by using a gamma counter (Packard Instruments, Downers Grove, Ill.). The biodistribution of tracer in each sample was calculated as percentage of the injected dose per gram of tissue wet weight (% ID/g).
as §1, with “breast” for “mammary”

[2] = system: human lung cancer cells (A549 tumor cell line); assay: Biodistribution in lung tumor-bearing nude mice; format: in vivo, athymic nude mice; conditions: for Biodistribution Blood / Biodistribution Brain / Biodistribution Heart / Biodistribution Intestine / Biodistribution Kidney / Biodistribution Liver / Biodistribution Lung / Biodistribution Muscle / Biodistribution Spleen / Biodistribution Stomach / Biodistribution Thyroid / Biodistribution Tumor / Tumor/Blood / Tumor/Lung / Tumor/Muscle: intravenously
Description: Female athymic nude mice (NCr-nu/nu, NCI, Bethasda, Md.) were inoculated with human lung cancer cells (A549 tumor cell line, 3×10^6 cells/mouse, intramuscular) by one author in the mid-dorsal region. After the tumor reached 6 mm, separate biodistribution studies using ^99mTc-EC-DG and 18F-FDG were conducted. Each received ^99mTc-EC-DG or 18F-FDG intravenously (n=3/time point). The injection activity was 1-3 μCi/mouse. The injected mass of ^99mTc-EC-DG was 0.2 mg/rodent.

In the case of `O=C(O)[C@@H]1C[S][99Tc]23(=[O])[S]C[C@@H](C(=O)O)[N]2CC[N]13` [^99mTc-EC, ^99mTc-L,L-ethylenedicysteine, reference compound], the “Biodistribution Blood” value ([1]; 1 Hour) is reported as 0.273 ± 0.039 % ID/g, the “Biodistribution Intestine” value ([1]; 1 Hour) is reported as 0.787 ± 0.106 % ID/g and the “Biodistribution Kidney” value ([1]; 1 Hour) is reported as 8.991 ± 0.268 % ID/g. The “Biodistribution Liver” value ([1]; 1 Hour) was 0.367 ± 0.006 % ID/g, the “Biodistribution Lung” value ([1]; 1 Hour) was 0.187 ± 0.029 % ID/g and the “Biodistribution Muscle” value ([1]; 1 Hour) was 0.043 ± 0.002 % ID/g. The “Biodistribution Stomach” value ([1]; 1 Hour) was 0.127 ± 0.106 % ID/g, the “Biodistribution Thyroid” value ([1]; 1 Hour) was 0.229 ± 0.118 % ID/g and the “Biodistribution Tumor” value ([1]; 1 Hour) was 0.149 ± 0.020 % ID/g. For the same molecule, the “Biodistribution Urine” value ([1]; 1 Hour) was 11.045 ± 6.158 % ID/g, the Tumor/Blood ([1]; 1 Hour) was 0.544 ± 0.004 and the Tumor/Lung ([1]; 1 Hour) was 0.797 ± 0.022. The Tumor/Muscle ([1]; 1 Hour) was 3.414 ± 0.325, the “Biodistribution Blood” value ([1]; 2 Hour) was 0.211 ± 0.001 % ID/g and the “Biodistribution Intestine” value ([1]; 2 Hour) was 0.401 ± 0.093 % ID/g. The “Biodistribution Kidney” value ([1]; 2 Hour) was 9.116 ± 0.053 % ID/g, the “Biodistribution Liver” value ([1]; 2 Hour) was 0.286 ± 0.073 % ID/g and the “Biodistribution Lung” value ([1]; 2 Hour) was 0.144 ± 0.002 % ID/g. For the same molecule, the “Biodistribution Muscle” value ([1]; 2 Hour) was 0.028 ± 0.009 % ID/g, the “Biodistribution Stomach” value ([1]; 2 Hour) was 0.037 ± 0.027 % ID/g and the “Biodistribution Thyroid” value ([1]; 2 Hour) was 0.106 ± 0.003 % ID/g. The “Biodistribution Tumor” value ([1]; 2 Hour) was 0.115 ± 0.002 % ID/g, the “Biodistribution Urine” value ([1]; 2 Hour) was 13.192 ± 4.505 % ID/g and the Tumor/Blood ([1]; 2 Hour) was 0.546 ± 0.010. The Tumor/Lung ([1]; 2 Hour) was 0.797 ± 0.002, the Tumor/Muscle ([1]; 2 Hour) was 4.425 ± 1.397 and the “Biodistribution Blood” value ([1]; 4 Hour) was 0.149 ± 0.008 % ID/g. For the same molecule, the “Biodistribution Intestine” value ([1]; 4 Hour) was 0.103 ± 0.009 % ID/g, the “Biodistribution Kidney” value ([1]; 4 Hour) was 7.834 ± 1.018 % ID/g and the “Biodistribution Liver” value ([1]; 4 Hour) was 0.234 ± 0.016 % ID/g. The “Biodistribution Lung” value ([1]; 4 Hour) was 0.120 ± 0.012 % ID/g, the “Biodistribution Muscle” value ([1]; 4 Hour) was 0.019 ± 0.001 % ID/g and the “Biodistribution Stomach” value ([1]; 4 Hour) was 0.043 ± 0.014 % ID/g. For the same molecule, the “Biodistribution Thyroid” value ([1]; 4 Hour) was 0.082 ± 0.005 % ID/g, the “Biodistribution Tumor” value ([1]; 4 Hour) was 0.096 ± 0.005 % ID/g and the “Biodistribution Urine” value ([1]; 4 Hour) was 8.693 ± 2.981 % ID/g. For the same molecule, the Tumor/Blood ([1]; 4 Hour) was 0.649 ± 0.005, the Tumor/Lung ([1]; 4 Hour) was 0.798 ± 0.007 and the Tumor/Muscle ([1]; 4 Hour) was 5.093 ± 0.223. The “Biodistribution Blood” value ([1]; 30 Min.) was 0.435 ± 0.29 % ID/g, the “Biodistribution Intestine” value ([1]; 30 Min.) was 0.173 ± 0.029 % ID/g and the “Biodistribution Kidney” value ([1]; 30 Min.) was 7.914 ± 0.896 % ID/g. The “Biodistribution Liver” value ([1]; 30 Min.) was 0.508 ± 0.062 % ID/g, the “Biodistribution Lung” value ([1]; 30 Min.) was 0.272 ± 0.019 % ID/g and the “Biodistribution Muscle” value ([1]; 30 Min.) was 0.060 ± 0.006 % ID/g. For the same molecule, the “Biodistribution Stomach” value ([1]; 30 Min.) was 0.136 ± 0.060 % ID/g, the “Biodistribution Thyroid” value ([1]; 30 Min.) was 0.219 ± 0.036 % ID/g and the “Biodistribution Tumor” value ([1]; 30 Min.) was 0.342 ± 0.163 % ID/g. The “Biodistribution Urine” value ([1]; 30 Min.) was 9.124 ± 0.808 % ID/g, the Tumor/Blood ([1]; 30 Min.) was 0.776 ± 0.322 and the Tumor/Lung ([1]; 30 Min.) was 1.256 ± 0.430. It also gave a Tumor/Muscle ([1]; 30 Min.) of 5.841 ± 3.253.
`OC[C@H]1OC(O)[C@H]([18F])[C@@H](O)[C@@H]1O` (some centres unmarked) [^18FDG, [^18F]fluorodeoxyglucose, reference compound] was tested, and the “Biodistribution Blood” value ([2]; 30 min) was 0.793 ± 0.067 % of injected dose per gram of tissue weight, the “Biodistribution Brain” value ([2]; 30 min) was 6.557 ± 0.390 % of injected dose per gram of tissue weight and the “Biodistribution Heart” value ([2]; 30 min) was 11.94 ± 2.571 % of injected dose per gram of tissue weight. The “Biodistribution Intestine” value ([2]; 30 min) was 2.322 ± 0.542 % of injected dose per gram of tissue weight, the “Biodistribution Kidney” value ([2]; 30 min) was 1.137 ± 0.117 % of injected dose per gram of tissue weight and the “Biodistribution Liver” value ([2]; 30 min) was 1.051 ± 0.057 % of injected dose per gram of tissue weight. The “Biodistribution Lung” value ([2]; 30 min) was 2.490 ± 0.209 % of injected dose per gram of tissue weight, the “Biodistribution Muscle” value ([2]; 30 min) was 4.876 ± 0.621 % of injected dose per gram of tissue weight and the “Biodistribution Spleen” value ([2]; 30 min) was 1.824 ± 0.196 % of injected dose per gram of tissue weight. The “Biodistribution Stomach” value ([2]; 30 min) was 5.046 ± 0.461 % of injected dose per gram of tissue weight, the “Biodistribution Thyroid” value ([2]; 30 min) was 4.490 ± 0.526 % of injected dose per gram of tissue weight and the “Biodistribution Tumor” value ([2]; 30 min) was 2.226 ± 0.150 % of injected dose per gram of tissue weight. It also gave a Tumor/Blood ([2]; 30 min) of 2.821 ± 0.144, a Tumor/Lung ([2]; 30 min) of 0.912 ± 0.119 and a Tumor/Muscle ([2]; 30 min) of 0.463 ± 0.026. For the same molecule, the “Biodistribution Blood” value ([2]; 2 h) was 0.236 ± 0.009 % of injected dose per gram of tissue weight, the “Biodistribution Brain” value ([2]; 2 h) was 3.113 ± 0.132 % of injected dose per gram of tissue weight and the “Biodistribution Heart” value ([2]; 2 h) was 20.33 ± 7.675 % of injected dose per gram of tissue weight. For the same molecule, the “Biodistribution Intestine” value ([2]; 2 h) was 2.764 ± 0.496 % of injected dose per gram of tissue weight, the “Biodistribution Kidney” value ([2]; 2 h) was 0.553 ± 0.104 % of injected dose per gram of tissue weight and the “Biodistribution Liver” value ([2]; 2 h) was 0.586 ± 0.040 % of injected dose per gram of tissue weight. For the same molecule, the “Biodistribution Lung” value ([2]; 2 h) was 2.222 ± 0.137 % of injected dose per gram of tissue weight, the “Biodistribution Muscle” value ([2]; 2 h) was 5.409 ± 0.611 % of injected dose per gram of tissue weight and the “Biodistribution Spleen” value ([2]; 2 h) was 1.903 ± 0.144 % of injected dose per gram of tissue weight. For the same molecule, the “Biodistribution Stomach” value ([2]; 2 h) was 4.374 ± 0.864 % of injected dose per gram of tissue weight, the “Biodistribution Thyroid” value ([2]; 2 h) was 4.617 ± 0.400 % of injected dose per gram of tissue weight and the “Biodistribution Tumor” value ([2]; 2 h) was 1.699 ± 0.172 % of injected dose per gram of tissue weight. For the same molecule, the Tumor/Blood ([2]; 2 h) was 7.261 ± 1.007, the Tumor/Lung ([2]; 2 h) was 0.775 ± 0.113 and the Tumor/Muscle ([2]; 2 h) was 0.319 ± 0.031. The “Biodistribution Blood” value ([2]; 4 h) was 0.203 ± 0.062 % of injected dose per gram of tissue weight, the “Biodistribution Brain” value ([2]; 4 h) was 2.065 ± 0.080 % of injected dose per gram of tissue weight and the “Biodistribution Heart” value ([2]; 4 h) was 19.35 ± 8.286 % of injected dose per gram of tissue weight. For the same molecule, the “Biodistribution Intestine” value ([2]; 4 h) was 1.562 ± 0.342 % of injected dose per gram of tissue weight, the “Biodistribution Kidney” value ([2]; 4 h) was 0.568 ± 0.027 % of injected dose per gram of tissue weight and the “Biodistribution Liver” value ([2]; 4 h) was 0.785 ± 0.039 % of injected dose per gram of tissue weight. For the same molecule, the “Biodistribution Lung” value ([2]; 4 h) was 2.280 ± 0.182 % of injected dose per gram of tissue weight, the “Biodistribution Muscle” value ([2]; 4 h) was 4.743 ± 0.610 % of injected dose per gram of tissue weight and the “Biodistribution Spleen” value ([2]; 4 h) was 1.591 ± 0.161 % of injected dose per gram of tissue weight. For the same molecule, the “Biodistribution Stomach” value ([2]; 4 h) was 2.278 ± 0.455 % of injected dose per gram of tissue weight, the “Biodistribution Thyroid” value ([2]; 4 h) was 4.424 ± 0.442 % of injected dose per gram of tissue weight and the “Biodistribution Tumor” value ([2]; 4 h) was 1.606 ± 0.182 % of injected dose per gram of tissue weight. The Tumor/Blood ([2]; 4 h) was 8.932 ± 1.973, the Tumor/Lung ([2]; 4 h) was 0.717 ± 0.106 and the Tumor/Muscle ([2]; 4 h) was 0.346 ± 0.048. For the same molecule, the “tumor/blood ratios, 18F-FDG versus ^99mTc-EC-DG” value ([2]; mouse, in vivo) was “higher tumor/blood ratios”.
